In ChEMBL document CHEMBL4334551, “Discovery of a New Sulfonamide Hepatitis B Capsid Assembly Modulator” (ACS Med Chem Lett, 2020):
Blank lines part the entries; values can stand above or below the compound they belong to.

Key:
[1] = Cytotoxicity against human HepAD38 cells assessed as reduction in cell viability incubated for 65 hrs by EZ-Cytox cell viability assay; type: cell-based
Hepatitis B virus [2] = experiment: Antiviral activity in HBV infected in human HepAD38 cells assessed as reduction in viral replication incubated for 65 hrs by RT-PCR analysis; type: functional, organism-based; details: HePAD38, 65 h
Hepatitis B virus [3] = experiment: Antiviral activity in HBV infected in human HepG2.2.15 cells assessed as reduction in viral replication incubated for 5 days by qPCR analysis; type: functional, organism-based; details: HepG2.2.15, 120 h
[4] = Stability in human liver microsomes assessed as compound remaining at 1 uM incubated for 30 mins by LC/MS/MS analysis; type: ADME, Microsome; details: read-out: Stability
[5] = Protein binding in rat plasma assessed as compound remaining at 5 uM incubated for 4 hrs by LC/MS/MS analysis; type: ADME, cell-free; details: read-out: PPB
[6] = molecular target: T1, Voltage-gated inwardly rectifying potassium channel KCNH2 (Homo sapiens, UniProt Q12809); experiment: Inhibition of human ERG by competitive fluorescence polarization assay
T1 sequence (Q12809 whole entry): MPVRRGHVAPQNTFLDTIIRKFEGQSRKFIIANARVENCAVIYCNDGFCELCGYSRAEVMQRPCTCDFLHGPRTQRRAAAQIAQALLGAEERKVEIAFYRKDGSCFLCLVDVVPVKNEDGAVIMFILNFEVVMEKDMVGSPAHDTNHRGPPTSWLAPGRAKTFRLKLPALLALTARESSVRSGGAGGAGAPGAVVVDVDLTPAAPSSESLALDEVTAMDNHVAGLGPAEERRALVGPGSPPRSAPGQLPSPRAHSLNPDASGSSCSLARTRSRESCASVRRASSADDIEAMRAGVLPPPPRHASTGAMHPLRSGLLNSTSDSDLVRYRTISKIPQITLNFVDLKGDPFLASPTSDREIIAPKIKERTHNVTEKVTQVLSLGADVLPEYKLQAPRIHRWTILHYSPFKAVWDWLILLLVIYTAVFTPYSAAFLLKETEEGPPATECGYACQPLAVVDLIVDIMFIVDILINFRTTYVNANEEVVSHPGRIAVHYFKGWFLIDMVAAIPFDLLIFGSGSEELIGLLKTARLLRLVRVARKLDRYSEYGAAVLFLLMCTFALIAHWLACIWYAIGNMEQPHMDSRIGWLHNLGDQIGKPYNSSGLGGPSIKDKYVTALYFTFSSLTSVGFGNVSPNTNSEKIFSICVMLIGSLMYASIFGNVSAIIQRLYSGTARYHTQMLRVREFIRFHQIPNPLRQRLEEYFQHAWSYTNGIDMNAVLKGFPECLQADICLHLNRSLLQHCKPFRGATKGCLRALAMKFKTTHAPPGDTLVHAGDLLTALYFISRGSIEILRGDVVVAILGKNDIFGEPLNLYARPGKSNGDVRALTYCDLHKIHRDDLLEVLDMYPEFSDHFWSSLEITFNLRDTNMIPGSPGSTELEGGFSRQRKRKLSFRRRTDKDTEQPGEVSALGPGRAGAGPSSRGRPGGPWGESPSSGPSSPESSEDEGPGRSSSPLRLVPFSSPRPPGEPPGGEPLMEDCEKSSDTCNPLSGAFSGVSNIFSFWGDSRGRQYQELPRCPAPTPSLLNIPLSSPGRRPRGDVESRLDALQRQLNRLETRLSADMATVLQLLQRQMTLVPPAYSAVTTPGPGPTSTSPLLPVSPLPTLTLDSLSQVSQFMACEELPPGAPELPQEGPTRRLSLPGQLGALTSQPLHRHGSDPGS

[7] = Stability in rat liver microsomes assessed as compound remaining at 1 uM incubated for 30 mins by LC/MS/MS analysis; type: ADME, Microsome; details: read-out: Stability
[8] = Half life in Sprague-Dawley rat at 5 mg/kg, po measured upto 24 hrs by LC/MS/MS analysis; type: ADME, organism-based; details: in vivo
[9] = AUClast in Sprague-Dawley rat at 5 mg/kg, iv measured upto 24 hrs by LC/MS/MS analysis; type: ADME, organism-based; parameters: time < 24 hr, dose 5 mg/kg, route intravenous; details: in vivo
Cytochrome P450 2C9 = Cytochrome P450 2C9 (Homo sapiens, UniProt P11712); experiment: Inhibition of human CYP2C9 using tolubutamide as substrate by LC/MS/MS analysis; type: ADME
Sequence of Cytochrome P450 2C9 (P11712 whole entry): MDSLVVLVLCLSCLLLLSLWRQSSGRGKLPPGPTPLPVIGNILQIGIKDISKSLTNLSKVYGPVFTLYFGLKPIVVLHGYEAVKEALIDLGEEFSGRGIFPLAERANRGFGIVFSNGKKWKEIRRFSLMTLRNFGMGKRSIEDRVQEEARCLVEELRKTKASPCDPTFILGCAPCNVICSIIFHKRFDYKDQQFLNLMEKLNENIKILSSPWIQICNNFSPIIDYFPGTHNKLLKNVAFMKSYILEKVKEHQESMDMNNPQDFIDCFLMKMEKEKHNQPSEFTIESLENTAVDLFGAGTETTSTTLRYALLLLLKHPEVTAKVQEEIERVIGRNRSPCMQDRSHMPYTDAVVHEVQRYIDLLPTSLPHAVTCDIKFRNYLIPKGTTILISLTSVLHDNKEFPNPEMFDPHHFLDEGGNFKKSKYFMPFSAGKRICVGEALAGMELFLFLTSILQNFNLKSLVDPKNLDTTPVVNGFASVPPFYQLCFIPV

[10] = Volume of distribution at steady state in Sprague-Dawley rat at 5 mg/kg, iv measured upto 24 hrs by LC/MS/MS analysis; type: ADME, organism-based; details: in vivo, read-out: Vdss
[11] = Half life in Sprague-Dawley rat at 5 mg/kg, iv measured upto 24 hrs by LC/MS/MS analysis; type: ADME, organism-based; details: in vivo
[12] = AUC in Sprague-Dawley rat at 5 mg/kg, po measured upto 24 hrs by LC/MS/MS analysis; type: ADME, organism-based; parameters: dose 5 mg/kg, time < 24 hr, route oral; details: in vivo
[13] = Protein binding in human plasma assessed as compound remaining at 5 uM incubated for 4 hrs by LC/MS/MS analysis; type: ADME, cell-free; details: read-out: PPB (converted)
[14] = AUClast in Sprague-Dawley rat at 5 mg/kg, po measured upto 24 hrs by LC/MS/MS analysis; type: ADME, organism-based; parameters: dose 5 mg/kg, time < 24 hr, route oral; details: in vivo
[15] = Stability in rat plasma assessed as compound remaining at 5 uM incubated for 4 hrs by LC/MS/MS analysis; type: ADME, cell-free; details: read-out: Stability
Cytochrome P450 2D6 = Cytochrome P450 2D6 (Homo sapiens, UniProt P10635); experiment: Inhibition of human CYP2D6 using dextromethorphan as substrate by LC/MS/MS analysis; type: ADME
Sequence of Cytochrome P450 2D6 (P10635 whole entry): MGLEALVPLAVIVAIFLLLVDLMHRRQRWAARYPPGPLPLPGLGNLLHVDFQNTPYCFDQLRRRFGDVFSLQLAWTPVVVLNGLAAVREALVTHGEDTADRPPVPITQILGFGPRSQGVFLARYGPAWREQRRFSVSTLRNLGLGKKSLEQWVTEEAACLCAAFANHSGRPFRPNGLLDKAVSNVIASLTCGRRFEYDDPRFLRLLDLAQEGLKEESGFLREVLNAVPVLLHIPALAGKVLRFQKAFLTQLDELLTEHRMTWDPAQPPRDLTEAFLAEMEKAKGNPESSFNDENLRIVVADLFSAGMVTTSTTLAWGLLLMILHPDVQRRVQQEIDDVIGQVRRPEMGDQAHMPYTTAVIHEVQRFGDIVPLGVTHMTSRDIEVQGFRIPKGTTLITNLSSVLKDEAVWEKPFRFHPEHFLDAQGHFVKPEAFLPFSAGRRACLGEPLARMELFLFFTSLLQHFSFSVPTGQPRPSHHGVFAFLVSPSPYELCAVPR

Cytochrome P450 2C19 = Cytochrome P450 2C19 (Homo sapiens, UniProt P33261); experiment: Inhibition of human CYP2C19 using S-mephenytoin as substrate by LC/MS/MS analysis; type: ADME
Sequence of Cytochrome P450 2C19 (P33261 whole entry): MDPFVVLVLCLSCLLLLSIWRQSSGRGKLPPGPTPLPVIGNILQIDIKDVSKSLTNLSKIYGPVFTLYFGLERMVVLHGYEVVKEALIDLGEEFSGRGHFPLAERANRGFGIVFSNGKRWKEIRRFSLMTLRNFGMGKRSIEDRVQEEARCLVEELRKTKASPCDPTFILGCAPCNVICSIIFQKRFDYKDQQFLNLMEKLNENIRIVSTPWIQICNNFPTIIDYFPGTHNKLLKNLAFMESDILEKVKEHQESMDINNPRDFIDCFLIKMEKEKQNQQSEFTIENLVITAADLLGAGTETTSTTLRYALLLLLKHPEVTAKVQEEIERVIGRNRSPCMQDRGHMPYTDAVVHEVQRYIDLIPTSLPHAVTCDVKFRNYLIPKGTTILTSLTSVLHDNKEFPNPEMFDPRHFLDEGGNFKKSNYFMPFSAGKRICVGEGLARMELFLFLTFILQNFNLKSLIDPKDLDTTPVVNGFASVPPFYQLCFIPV

Cytochrome P450 3A4 = Cytochrome P450 3A4 (Homo sapiens, UniProt P08684); experiment: Inhibition of human CYP3A4 using […] as substrate by LC/MS/MS analysis; type: ADME
Sequence of Cytochrome P450 3A4 (P08684 whole entry): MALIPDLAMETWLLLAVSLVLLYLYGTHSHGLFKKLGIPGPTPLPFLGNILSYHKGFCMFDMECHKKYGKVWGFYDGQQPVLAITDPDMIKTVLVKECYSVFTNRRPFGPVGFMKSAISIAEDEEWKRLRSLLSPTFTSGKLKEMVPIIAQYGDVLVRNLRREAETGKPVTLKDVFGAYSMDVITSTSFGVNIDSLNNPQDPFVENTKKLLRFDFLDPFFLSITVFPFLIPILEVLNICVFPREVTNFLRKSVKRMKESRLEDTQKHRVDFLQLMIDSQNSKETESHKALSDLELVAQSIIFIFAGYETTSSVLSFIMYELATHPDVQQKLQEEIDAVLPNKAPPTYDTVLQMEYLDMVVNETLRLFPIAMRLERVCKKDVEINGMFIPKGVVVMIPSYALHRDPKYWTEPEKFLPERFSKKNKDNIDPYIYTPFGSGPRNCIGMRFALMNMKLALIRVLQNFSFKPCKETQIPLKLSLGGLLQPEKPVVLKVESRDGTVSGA

Hepatitis B virus [16] = experiment: Potency index, ratio of EC50 of NVR3-778 to EC50 of compound for antiviral activity in HBV infected in human HepAD38 cells assessed as reduction in viral replication incubated for 65 hrs by RT-PCR analysis; type: functional
[17] = Oral bioavailability in Sprague-Dawley rat at 5 mg/kg measured upto 24 hrs by LC/MS/MS analysis; type: ADME, organism-based; details: in vivo
Cytochrome P450 1A2 = molecular target: T2, Cytochrome P450 1A2 (Homo sapiens, UniProt P05177); experiment: Inhibition of human CYP1A2 using phenacetin as substrate by LC/MS/MS analysis; type: ADME
T2 sequence (P05177 whole entry): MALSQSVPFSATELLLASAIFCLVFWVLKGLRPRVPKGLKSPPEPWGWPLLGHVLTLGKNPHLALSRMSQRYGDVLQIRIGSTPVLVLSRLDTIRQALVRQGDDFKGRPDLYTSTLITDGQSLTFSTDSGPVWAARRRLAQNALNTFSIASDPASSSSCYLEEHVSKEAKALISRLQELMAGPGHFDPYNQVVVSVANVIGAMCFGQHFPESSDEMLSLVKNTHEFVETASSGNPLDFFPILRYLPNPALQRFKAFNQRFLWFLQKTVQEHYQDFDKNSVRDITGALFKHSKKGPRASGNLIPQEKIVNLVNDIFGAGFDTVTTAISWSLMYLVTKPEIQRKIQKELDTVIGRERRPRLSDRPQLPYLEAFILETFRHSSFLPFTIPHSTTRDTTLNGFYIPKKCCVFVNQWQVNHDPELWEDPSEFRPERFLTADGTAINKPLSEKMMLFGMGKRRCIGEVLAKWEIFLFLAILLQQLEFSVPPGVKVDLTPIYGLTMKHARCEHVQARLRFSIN

[18] = Cmax in Sprague-Dawley rat at 5 mg/kg, po measured upto 24 hrs by LC/MS/MS analysis; type: ADME, organism-based; parameters: dose 5 mg/kg, route oral; details: in vivo
[19] = Stability in rat liver microsomes assessed as half life at 1 uM incubated for 30 mins by LC/MS/MS analysis; type: ADME, Microsome
[20] = Stability in human plasma assessed as compound remaining at 5 uM incubated for 4 hrs by LC/MS/MS analysis; type: ADME, cell-free; details: read-out: Stability
[21] = AUC in Sprague-Dawley rat at 5 mg/kg, iv measured upto 24 hrs by LC/MS/MS analysis; type: ADME, organism-based; parameters: dose 5 mg/kg, time < 24 hr, route intravenous; details: in vivo
[22] = Tmax in Sprague-Dawley rat at 5 mg/kg, po measured upto 24 hrs by LC/MS/MS analysis; type: ADME, organism-based; details: in vivo
[23] = Clearance in Sprague-Dawley rat at 5 mg/kg, iv measured upto 24 hrs by LC/MS/MS analysis; type: ADME, organism-based; details: in vivo
[24] = molecular target: T1, Voltage-gated inwardly rectifying potassium channel KCNH2; experiment: Inhibition of human ERG expressed in human HEK293 cells by patch clamp assay; type: cell-based

Compound: O=C(Nc1cc(F)c(F)c(F)c1)c1cccc(S(=O)(=O)N2CCC(O)CC2)c1
CC50 at 65 h [1]: 77.7 µM
EC50 (Hepatitis B virus [2]): 0.97 µM

Compound: CNc1cc(F)c(S(=O)(=O)N2CCC(O)CC2)cc1C(=O)Nc1cc(F)c(F)c(F)c1
CC50 at 65 h [1]: > 100 µM
EC50 (Hepatitis B virus [2]): > 3.3 µM

Compound: O=C(Nc1cc(F)c(F)c(F)c1)c1cc(Br)c(F)c(S(=O)(=O)N2CCC(O)CC2)c1
CC50 at 65 h [1]: > 100 µM
EC50 (Hepatitis B virus [2]): > 3.3 µM

Compound: CN(C)c1ccc(S(=O)(=O)N2CCC(O)CC2)cc1C(=O)Nc1cc(F)c(F)c(F)c1
CC50 at 65 h [1]: > 100 µM
EC50 (Hepatitis B virus [2]): > 3.3 µM

Compound: O=C(Nc1cc(F)c(F)c(F)c1)c1cc(S(=O)(=O)N2CCC(O)CC2)cc2cc[nH]c12
CC50 at 65 h [1]: > 100 µM
EC50 (Hepatitis B virus [2]): > 3.3 µM

Compound: O=C(Nc1cc(F)c(F)c(F)c1)c1cc(S(=O)(=O)N2CCC(O)CC2)ccc1O
CC50 at 65 h [1]: > 100 µM
EC50 (Hepatitis B virus [2]): > 3.3 µM

Compound: COc1ccc(S(=O)(=O)N2CCC(O)CC2)cc1C(=O)Nc1cc(F)c(F)c(F)c1
CC50 at 65 h [1]: > 100 µM
EC50 (Hepatitis B virus [2]): > 3.3 µM

Compounds with a lower EC50 (Hepatitis B virus [2]), results first:

EC50 (Hepatitis B virus [2]): 0.28 µM
Compound: Nc1cc(C(=O)Nc2cc(F)c(F)c(F)c2)cc(S(=O)(=O)N2CCC(O)CC2)c1F
CC50 at 65 h [1]: 87.9 µM

EC50 (Hepatitis B virus [3]): 0.0064 µM
EC50 (Hepatitis B virus [2]): 0.36 µM
Compound: O=C(Nc1cc(F)c(F)c(F)c1)c1ccc(F)c(S(=O)(=O)N2CCC(O)CC2)c1
CC50 at 65 h [1]: 57.7 µM

remaining at 0.5 h, 1 µM [4]: 50.2%
remaining at 4 h, 5 µM [5]: 98.7%
remaining at 0.5 h, 1 µM [7]: 49.2%
half-life [8]: 3.44 h
AUC(0-t) at 24 h [9]: 6300 ng·h/mL
IC50 (Cytochrome P450 2C9): 17 µM
Vd [10]: 2.95 L/kg
half-life [11]: 6.67 h
AUC at 24 h [12]: 5090 ng·h/mL
fraction unbound at 4 h, 5 µM [13]: 0.0073
AUC(0-t) at 24 h [14]: 5050 ng·h/mL
remaining at 4 h, 5 µM [15]: 90.1%
IC50 (Cytochrome P450 2D6): 32.6 µM
IC50 (Cytochrome P450 2C19): 23.1 µM
IC50 (Cytochrome P450 3A4): 27.8 µM
bioavailability [17]: 80.2%
IC50 (Cytochrome P450 1A2): 81.1 µM
Cmax [18]: 940 ng/mL
half-life at 1 µM [19]: 0.481 h
remaining at 4 h, 5 µM [20]: 71.9%
EC50 (Hepatitis B virus [2]): 0.044 µM
AUC at 24 h [21]: 6420 ng·h/mL
Tmax [22]: 1.58 h
clearance [23]: 13.5 mL/min/kg
Compound: Nc1cc(F)c(S(=O)(=O)N2CCC(O)CC2)cc1C(=O)Nc1cc(F)c(F)c(F)c1
IC50 [6]: 10.9 µM
CC50 at 65 h [1]: 48.9 µM
Ratio EC50 (Hepatitis B virus [16]): 9
IC50 [24]: 8.78 µM

EC50 (Hepatitis B virus [2]): 0.24 µM
Compound: Nc1ccc(S(=O)(=O)N2CCC(O)CC2)cc1C(=O)Nc1cc(F)c(F)c(F)c1
CC50 at 65 h [1]: 76.9 µM

EC50 (Hepatitis B virus [2]): 0.72 µM
Compound: CSc1ccc(S(=O)(=O)N2CCC(O)CC2)cc1C(=O)Nc1cc(F)c(F)c(F)c1
CC50 at 65 h [1]: > 100 µM
